{"source": "patent US20040009194A1", "about": "“Methods, and compositions for a therapeutic antigen presenting cell vaccine for treatment of immunodeficiency virus” (priority 2002, published 2004)", "key": {"autologous PBL": {"tested_on": "autologous PBL", "assay": "Proliferation of patient T cells stimulated with inactivated-virus-pulsed autologous DC ([methyl-3H]thymidine incorporation)", "format": "cell-based, human", "conditions": "indinavir 10 nM (nonantiviral concentration); P<0.001", "description": "To mimic the antigen capture by DC in peripheral tissues, immature DC (i.e., competent in antigen capture) generated by culturing patient blood monocytes with GM-CSF and IL-4 for 5 days were pulsed with autologous viral isolates inactivated by 2,2′ dithiodipyridine or aldrithiol-2 (AT-2), which preserves the intact native conformation and fusogenic activity of HIV Env protein. As will be appreciated by those skilled in the art, there are a number of mechanisms suitable to inactivate a virus, and any of these methods can be used so long as the method preserves the intact native conformation and fusogenic activity of HIV Env protein. To model the presentation of antigens in lymphoid tissue, virus-pulsed DC were matured in the presence of TNF-α and IFN-α for an additional 3 days to maximize their T-cell-stimulatory activity. Matured virus-pulsed DC was then used to stimulate autologous PBL at a stimulator/responder ratio of 1:3 in the absence or presence of PI at a nonantiviral concentration (10 nM indinavir). By day 7 of coculture, PBL were restimulated with the same virus-pulsed DC for an additional 7 days. At day 14, proliferation was measured by incubating PBL with virus-pulsed DC at stimulator/responder ratios of 1:3 to 1:100. […] HIV-1 gag-specific CTL activity following stimulation with virus-pulsed autologous DC."}, "[1]": {"tested_on": "autologous B-LCL infected by recombinant vaccinia virus containing a gag gene of HIV-1", "format": "cell-based, human"}}}
{"smiles": "CC(C)(C)NC(=O)[C@@H]1CN(Cc2cccnc2)CCN1C[C@@H](O)C[C@@H](Cc1ccccc1)C(=O)N[C@H]1c2ccccc2C[C@H]1O", "note": "[indinavir]", "values": [{"measurement": "effect of PI on DC-mediated T-cell proliferation", "setting": "autologous PBL", "result": "significantly enhanced"}, {"measurement": "effect of indinavir on gag-specific CTL activity", "setting": "[1]", "result": "significantly enhanced"}]}
